{"source": "patent US12239645B2", "about": "“Targeted dosing for the treatment of complement mediated disorders” (Achillion Pharmaceuticals, Inc., priority 2018, dated 2025)", "key": {"[1]": {"system": "fD, C3, C4, classical pathway (CP) function", "experiment": "Other complement assays (fD, C3, C4 serum concentration, serum total CP function)", "assay_type": "in vivo, human", "method": "[…] were dosed and evaluated in 4 dose groups with ten subjects receiving placebo (Table 1). The first dose group had 6 active and 6 placebo subjects; subsequent groups had 6 active and 2 placebo subjects each. Each group was followed for 28 days after dosing. All subjects were monitored for safety through the last scheduled visit at Day 28. Blood and urine samples were collected at predefined time points from Days 1 to 4 to determine plasma and urine concentrations of Compound 1 and from Days 1 to 7 to determine complement related activities. Results of serum AP activity measured by AP Wieslab assay as well as plasma Bb, factor D level and several other PD biomarkers were determined.\nSerum AP hemolysis activity was assessed in samples collected from all cohorts at predefined time points from Day 1 (pre-dose) through Day 21. Intense sampling was obtained on Day 1 (0 h to 12 h), Day 7 (0 h to 12 h), and Day 14 (0 h to 16 h); all other serum samples were collected at 0 h (morning PK troughs) on the indicated days. […] Serum complement AP activity measured ex vivo by the AP Wieslab assay, serum total complement classical pathway (CP) activity, plasma complement Bb concentrations, and serum FD, C3, and C4 concentrations were also measured at predefined time points."}, "[2]": {"experiment": "Multiple ascending dose (MAD) study: multiple-dose pharmacokinetics", "assay_type": "in vivo, human", "details": "for concentration at 120 h: Day 6, 0 hr post-dose (120 h); for concentration at 120 h / concentration at 132 h / concentration at 144 h / concentration at 156 h / concentration at 168 h / concentration at 192 h / concentration at 288 h / concentration at 300 h / concentration at 312 h / concentration at 324 h: read-out: Pre-dose (trough) plasma concentration, Mean; for concentration at 132 h: Day 6, 12 hr post-dose (132 h); for concentration at 144 h: Day 7, 0 hr post-dose (144 h); for concentration at 156 h: Day 7, 12 hr post-dose (156 h); for concentration at 168 h: Day 8, 0 hr post-dose (168 h); for concentration at 192 h: Day 9, 0 hr post-dose (192 h); for concentration at 288 h: Day 13, 0 hr post-dose (288 h); for concentration at 300 h: Day 13, 12 hr post-dose (300 h); for concentration at 312 h: Day 14, 0 hr post-dose (312 h); for concentration at 324 h: Day 14, 12 hr post-dose (324 h); for Cmax: read-out: Cmax, Mean", "method": "A multiple ascending dose (MAD) study of Compound 1 with two additional single-dose cohorts was also completed. […] Secondary objectives included evaluation of the pharmacokinetic (PK) profile and the relationship between Compound 1 PK and pharmacodynamic (PD) characteristics, that is, the inhibition of complement alternative pathway (AP) activity (PK/PD). In the MAD study, multiple-dose pharmacokinetics and pharmacodynamics of Compound 1 were evaluated in four dose groups administered Compound 1 (40, 80, 120 and 200 mg BID) in the fasted state for 14-days (Table 3). Eight subjects received active drug in each group; eight subjects received placebo in the first dose group (40 mg) and two subjects received placebo in each of the other three dose groups. Two additional cohorts were administered Compound 1 at single doses of 240 mg (fasted subjects) and 120 mg (fed subjects) (Table 3). The two single-dose cohorts each comprised six subjects receiving active drug and two subjects receiving placebo. Plasma and serum samples for PK and PD assessment were collected on selected days prior to dosing (at local troughs), and on days 1, 7, and 14 at 0.5-hour to 2-hour intervals for more detailed assessment."}, "[3]": {"details": "human, plasma, oral, 40 mg, 40 mg BID × 14 Days, Day 1"}, "[4]": {"details": "human, plasma, oral, 40 mg, 40 mg BID × 14 Days, Day 7"}, "[5]": {"details": "human, plasma, oral, 40 mg, 40 mg BID × 14 Days, Day 14"}, "[6]": {"details": "human, plasma, oral, 80 mg, 80 mg BID × 14 Days, Day 1"}, "[7]": {"details": "human, plasma, oral, 80 mg, 80 mg BID × 14 Days, Day 7"}, "[8]": {"details": "human, plasma, oral, 80 mg, 80 mg BID × 14 Days, Day 14"}, "[9]": {"details": "human, plasma, oral, 80 mg, 80 mg BID"}, "[10]": {"details": "human, plasma, oral, 120 mg, 120 mg BID × 14 Days, Day 1"}}, "note": "Like-named read-outs stand apart in the source and are kept apart here.", "data": [{"smiles": "CC(=O)c1nn(CC(=O)N2[C@H](C(=O)Nc3nc(Br)ccc3C)C[C@@]3(C)C[C@@H]23)c2ccc(-c3cnc(C)nc3)cc12", "note": "[Compound 1, (1R,3S,5R)-2-(2-(3-acetyl-5-(2-methylpyrimidin-5-yl)-1H-indazol-1-yl)acetyl)-N-(6-bromo-3-methylpyridin-2-yl)-5-methyl-2-azabicyclo[3.1.0]hexane-3-carboxamide]", "values": [{"measurement": "change in serum CP activity and serum factor D, C3, C4 concentrations", "setting": "[1]; MAD study single-dose cohorts (240 mg fasted, 120 mg fed)", "value": "no significant changes"}, {"measurement": "change in fD, C3, C4 serum concentration and serum total CP function", "setting": "[1]; SAD, single dose up to 120 mg, vs baseline and placebo", "value": "no significant changes"}, {"measurement": "Mean pre-dose concentrations at steady-state, range", "setting": "[2]; 40 mg BID", "value": "15.6 to 23.5", "unit": "ng/mL"}, {"measurement": "Mean pre-dose concentrations at steady-state, range", "setting": "[2]; 80 mg BID", "value": "45.9 to 83.7", "unit": "ng/mL"}, {"measurement": "Mean pre-dose concentrations at steady-state, range", "setting": "[2]; 120 mg BID", "value": "80.6 to 153", "unit": "ng/mL"}, {"measurement": "Mean pre-dose concentrations at steady-state, range", "setting": "[2]; 200 mg BID", "value": "247 to 392", "unit": "ng/mL"}, {"measurement": "concentration at 120 h", "setting": "[2]; human, plasma, oral, 40 mg BID", "value": 27.8, "unit": "ng/mL"}, {"measurement": "concentration at 132 h", "setting": "[2]; human, plasma, oral, 40 mg BID", "value": 17.9, "unit": "ng/mL"}, {"measurement": "concentration at 144 h", "setting": "[2]; human, plasma, oral, 40 mg BID", "value": 24.3, "unit": "ng/mL"}, {"measurement": "concentration at 156 h", "setting": "[2]; human, plasma, oral, 40 mg BID", "value": 15.7, "unit": "ng/mL"}, {"measurement": "concentration at 168 h", "setting": "[2]; human, plasma, oral, 40 mg BID", "value": 27.8, "unit": "ng/mL"}, {"measurement": "concentration at 192 h", "setting": "[2]; human, plasma, oral, 40 mg BID", "value": 26.9, "unit": "ng/mL"}, {"measurement": "concentration at 288 h", "setting": "[2]; human, plasma, oral, 40 mg BID", "value": 23.5, "unit": "ng/mL"}, {"measurement": "concentration at 300 h", "setting": "[2]; human, plasma, oral, 40 mg BID", "value": 15.3, "unit": "ng/mL"}, {"measurement": "concentration at 312 h", "setting": "[2]; human, plasma, oral, 40 mg BID", "value": 25.2, "unit": "ng/mL"}, {"measurement": "concentration at 324 h", "setting": "[2]; human, plasma, oral, 40 mg BID", "value": 16.2, "unit": "ng/mL"}, {"measurement": "concentration at 12 h", "setting": "[2]; human, plasma, oral, 40 mg BID, all 12 hr (evening) troughs, read-out: Mean C(12), steady-state trough", "value": 15.6, "unit": "ng/mL"}, {"measurement": "Tmax", "setting": "[2]; [3]", "value": 1.56, "unit": "h"}, {"measurement": "AUC(0-t)", "setting": "[2]; human, plasma, oral, 40 mg, 40 mg BID × 14 Days, Day 1, read-out: AUC(0-12), Mean", "value": 392, "unit": "ng·h/mL"}, {"measurement": "Cmax", "setting": "[2]; [3]", "value": 107, "unit": "ng/mL"}, {"measurement": "Tmax", "setting": "[2]; [4]", "value": 1.8, "unit": "h"}, {"measurement": "AUC(0-t)", "setting": "[2]; human, plasma, oral, 40 mg, 40 mg BID × 14 Days, Day 7, read-out: AUC(0-12), Mean", "value": 741, "unit": "ng·h/mL"}, {"measurement": "AUC(0-t)", "setting": "[2]; human, plasma, oral, 40 mg, 40 mg BID × 14 Days, Day 7, read-out: AUC(0-24), Mean", "value": 1480, "unit": "ng·h/mL"}, {"measurement": "Cmax", "setting": "[2]; [4]", "value": 169, "unit": "ng/mL"}, {"measurement": "Tmax", "setting": "[2]; [5]", "value": 1.58, "unit": "h"}, {"measurement": "AUC(0-t)", "setting": "[2]; human, plasma, oral, 40 mg, 40 mg BID × 14 Days, Day 14, read-out: AUC(0-12), Mean", "value": 732, "unit": "ng·h/mL"}, {"measurement": "AUC(0-t)", "setting": "[2]; human, plasma, oral, 40 mg, 40 mg BID × 14 Days, Day 14, read-out: AUC(0-24), Mean", "value": 1460, "unit": "ng·h/mL"}, {"measurement": "Cmax", "setting": "[2]; [5]", "value": 156, "unit": "ng/mL"}, {"measurement": "concentration at 156 h", "setting": "[2]; human, plasma, oral, 80 mg BID", "value": 43.7, "unit": "ng/mL"}, {"measurement": "concentration at 168 h", "setting": "[2]; human, plasma, oral, 80 mg BID", "value": 109, "unit": "ng/mL"}, {"measurement": "concentration at 192 h", "setting": "[2]; human, plasma, oral, 80 mg BID", "value": 102, "unit": "ng/mL"}, {"measurement": "concentration at 288 h", "setting": "[2]; human, plasma, oral, 80 mg BID", "value": 63.3, "unit": "ng/mL"}, {"measurement": "concentration at 300 h", "setting": "[2]; human, plasma, oral, 80 mg BID", "value": 45.2, "unit": "ng/mL"}, {"measurement": "concentration at 312 h", "setting": "[2]; human, plasma, oral, 80 mg BID", "value": 85, "unit": "ng/mL"}, {"measurement": "Tmax", "setting": "[2]; [6]", "value": 1.79, "unit": "h"}, {"measurement": "AUC(0-t)", "setting": "[2]; human, plasma, oral, 80 mg, 80 mg BID × 14 Days, Day 1, read-out: AUC(0-12), Mean", "value": 856, "unit": "ng·h/mL"}, {"measurement": "Cmax", "setting": "[2]; [6]", "value": 207, "unit": "ng/mL"}, {"measurement": "Tmax", "setting": "[2]; [7]", "value": 2, "unit": "h"}, {"measurement": "AUC(0-t)", "setting": "[2]; human, plasma, oral, 80 mg, 80 mg BID × 14 Days, Day 7, read-out: AUC(0-12), Mean", "value": 1990, "unit": "ng·h/mL"}, {"measurement": "AUC(0-t)", "setting": "[2]; human, plasma, oral, 80 mg, 80 mg BID × 14 Days, Day 7, read-out: AUC(0-24), Mean", "value": 3990, "unit": "ng·h/mL"}, {"measurement": "Cmax", "setting": "[2]; [7]", "value": 472, "unit": "ng/mL"}, {"measurement": "Tmax", "setting": "[2]; [8]", "value": 2.14, "unit": "h"}, {"measurement": "AUC(0-t)", "setting": "[2]; human, plasma, oral, 80 mg, 80 mg BID × 14 Days, Day 14, read-out: AUC(0-12), Mean", "value": 1980, "unit": "ng·h/mL"}, {"measurement": "AUC(0-t)", "setting": "[2]; human, plasma, oral, 80 mg, 80 mg BID × 14 Days, Day 14, read-out: AUC(0-24), Mean", "value": 3970, "unit": "ng·h/mL"}, {"measurement": "Cmax", "setting": "[2]; [8]", "value": 453, "unit": "ng/mL"}, {"measurement": "concentration at 120 h", "setting": "[2]; [9]", "value": 73.8, "unit": "ng/mL"}, {"measurement": "concentration at 132 h", "setting": "[2]; [9]", "value": 52.1, "unit": "ng/mL"}, {"measurement": "concentration at 144 h", "setting": "[2]; [9]", "value": 69.1, "unit": "ng/mL"}, {"measurement": "concentration at 324 h", "setting": "[2]; [9]", "value": 42.5, "unit": "ng/mL"}, {"measurement": "concentration at 12 hr", "setting": "[2]; human, plasma, oral, 80 mg, 80 mg BID, all 12 hr (evening) troughs, read-out: Mean C(12), steady-state trough", "value": 45.9, "unit": "ng/mL"}, {"measurement": "concentration at 12 h", "setting": "[2]; human, plasma, oral, 120 mg BID, all 12 hr (evening) troughs, read-out: Mean C(12), steady-state trough", "value": "~80", "unit": "ng/mL"}, {"measurement": "Tmax", "setting": "[2]; [10]", "value": 2, "unit": "h"}, {"measurement": "AUC(0-t)", "setting": "[2]; human, plasma, oral, 120 mg, 120 mg BID × 14 Days, Day 1, read-out: AUC(0-12), Mean", "value": 1200, "unit": "ng·h/mL"}, {"measurement": "Cmax", "setting": "[2]; [10]", "value": 353, "unit": "ng/mL"}]}]}
